Experiment [1] has as its target T1, PRMT5 (Homo sapiens, UniProt O14744).
T1 construct: purchased Viva (custom protein)
Description: PRMT5 biochemical IC50 assay with MTA as cofactor. Conditions: PRMT5, MTA as cofactor; read-out: MTA IC50.

Experiment [2] has as its system HAP1 MTAP-deleted cell line. Kind of experiment: SDMA in-cell western assay, HAP1 MTAP-deleted. Type of experiment: cell-based. Conditions: for pIC50: Homo sapiens, HAP1, SDMA in-cell western, HAP1 MTAP-deleted, read-out: HAP 1 MTAP deleted IC50; for MTAP intact/deleted ratio: IC50 ratio HAP1 MTAP-intact / HAP1 MTAP-deleted, SDMA in-cell western. In outline:
(§1)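 IC50 values come from SDMA signal quantified by in-cell western in two HAP1 lines, one with native MTAP levels and one lacking MTAP.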

The subject of experiment [3] is HAP1 MTAP-intact cell line. Description: SDMA in-cell western assay, HAP1 MTAP-intact. Conditions: Homo sapiens, HAP1, SDMA in-cell western, HAP1 MTAP-intact; read-out: MTAP HAP1 intact IC50. In kind it is cell-based. In outline:
as §1

The subject of experiment [4] is HAP1 MTAP-deleted cell line. Kind of experiment: Viability assay, MTAP-deleted cell line. Type of experiment: cell-based. Conditions: Homo sapiens, HAP1, viability assay, MTAP-deleted cell line; read-out: HAP1 MTAP deleted viability. An excerpt: Table 1 additionally indicates IC50 values in a viability assay for the MTAP-deleted cell line (column 10), indicating the effect of treatment with compound on cell survival.

In experiment [5] the target is T1, PRMT5. Description: PRMT5 biochemical IC50 assay with no cofactor. Conditions: PRMT5, no cofactor; read-out: No Cofactor/ rel IC50. The text has this:
Table 1 indicates IC50 values (μM) against PRMT5 for exemplary compounds in the presence of SAM as cofactor, with no cofactor, and with MTA as cofactor, respectively (columns 4-6). […] Ki values can be calculated from the IC50 values as described in the Examples section. As detailed in the Examples section, for the assay performed in the presence of SAM, IC50=Ki×1.5 (Ki=IC50/1.5).

Experiment [6] has as its target T1, PRMT5. Kind of experiment: PRMT5 biochemical IC50 assay with SAM as cofactor. Conditions: PRMT5, SAM as cofactor; read-out: SAM IC50.

pIC50: −log10 of the molar value. Where only a bound is given, the exact number is not on record here.

T1 sequence (O14744 whole entry): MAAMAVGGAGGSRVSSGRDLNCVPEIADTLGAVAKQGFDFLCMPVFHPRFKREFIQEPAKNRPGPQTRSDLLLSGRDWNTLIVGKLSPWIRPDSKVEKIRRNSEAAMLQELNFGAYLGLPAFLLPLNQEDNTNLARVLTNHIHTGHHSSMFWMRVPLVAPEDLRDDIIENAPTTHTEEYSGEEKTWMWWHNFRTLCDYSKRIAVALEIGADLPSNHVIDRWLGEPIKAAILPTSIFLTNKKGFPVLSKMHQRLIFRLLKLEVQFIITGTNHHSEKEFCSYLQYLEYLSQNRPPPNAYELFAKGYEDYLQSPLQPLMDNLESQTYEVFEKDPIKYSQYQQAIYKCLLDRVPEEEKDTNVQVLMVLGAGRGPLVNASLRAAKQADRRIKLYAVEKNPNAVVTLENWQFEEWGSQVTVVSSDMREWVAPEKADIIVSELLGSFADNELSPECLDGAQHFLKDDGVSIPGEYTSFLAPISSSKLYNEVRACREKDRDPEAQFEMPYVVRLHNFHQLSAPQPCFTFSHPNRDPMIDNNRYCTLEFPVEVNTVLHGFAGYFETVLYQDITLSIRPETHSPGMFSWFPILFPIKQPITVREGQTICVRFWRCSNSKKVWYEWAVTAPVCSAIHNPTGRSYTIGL
T1 sequence (Q9BQA1 whole entry partner): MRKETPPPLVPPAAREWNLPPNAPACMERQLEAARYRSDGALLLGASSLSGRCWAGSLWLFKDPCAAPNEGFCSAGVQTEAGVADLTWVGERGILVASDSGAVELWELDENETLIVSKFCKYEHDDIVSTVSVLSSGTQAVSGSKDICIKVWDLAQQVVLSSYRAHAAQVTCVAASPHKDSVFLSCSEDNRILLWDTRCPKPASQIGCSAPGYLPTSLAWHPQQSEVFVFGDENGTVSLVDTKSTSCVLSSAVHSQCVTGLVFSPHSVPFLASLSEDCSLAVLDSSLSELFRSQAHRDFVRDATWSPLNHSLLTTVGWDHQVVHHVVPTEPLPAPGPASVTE

With `CC1(C)CCC(c2ccccc2)N(C(=O)C(=O)Nc2cncc(C(N)=O)c2)C1` (centres unmarked) [Compound 45, 5-(2-(5,5-dimethyl-2-phenylpiperidin-1-yl)-2-oxoacetamido)nicotinamide], the pIC50 was 6.30 to 7.30 at PRMT5 [1]; 6.00 to 7.00 in experiment [2]; less than 6.00 in experiment [3]; less than 5.00 in experiment [4]; less than 6.30 at PRMT5 [5]; less than 6.30 on PRMT5 [6]. Moreover, the “MTAP intact/deleted ratio” value in experiment [2] is reported as “A (an IC50 ratio greater than or equal to 10 fold)”.
In the case of `Cc1csc(C2CCCCN2C(=O)C(=O)Nc2cnc(N)c(C)c2)n1` (centres unmarked) [Compound 49, N-(6-Amino-5-methyl-3-pyridyl)-2-[2-(4-methylthiazol-2-yl)-1-piperidyl]-2-oxo-acetamide], the pIC50 on PRMT5 [1] was greater than 7.30; in experiment [2], 6.00 to 7.00; in experiment [3], less than 6.00; in experiment [4], less than 5.00; on PRMT5 [5], 6.30 to 7.30; at PRMT5 [6], 6.30 to 7.30. Further, the “MTAP intact/deleted ratio” value in experiment [2] is given as “A (an IC50 ratio greater than or equal to 10 fold)”.
With `Cc1cc(NC(=O)C(=O)N2CCCCC2C2CCCC2)cnc1N` (centres unmarked) [Compound 61, N-(6-amino-5-methyl-3-pyridyl)-2-(2-cyclopentyl-1-piperidyl)-2-oxo-acetamide], the pIC50 on PRMT5 [1] was 6.30 to 7.30; in experiment [2], greater than 7.00; in experiment [3], less than 6.00; in experiment [4], 5.00 to 6.00; at PRMT5 [5], 6.30 to 7.30; on PRMT5 [6], less than 6.30. In experiment [2], the “MTAP intact/deleted ratio” value is given as “A (an IC50 ratio greater than or equal to 10 fold)”.
Regarding `CC(C)C1CCCCN1C(=O)C(=O)Nc1cncc(C(N)=O)c1` (centres unmarked) [Compound 100, 5-[[2-(2-isopropyl-1-piperidyl)-2-oxo-acetyl]amino]pyridine-3-carboxamide], the pIC50 on PRMT5 [1] was 6.30 to 7.30; in experiment [2], 6.00 to 7.00; in experiment [3] it was less than 6.00; in experiment [4], less than 5.00; on PRMT5 [5], less than 6.30; on PRMT5 [6] it was 6.30 to 7.30. In addition, the “MTAP intact/deleted ratio” value in experiment [2] is recorded as “A (an IC50 ratio greater than or equal to 10 fold)”.
Take `NC(=O)c1cncc(NC(=O)C(=O)N2CCCCC2C2CCCCC2)c1` (centres unmarked) [Compound 101, 5-(2-(2-cyclohexylpiperidin-1-yl)-2-oxoacetamido)nicotinamide]: the pIC50 is greater than 7.30 at PRMT5 [1]; greater than 7.00 in experiment [2]; less than 6.00 in experiment [3]; less than 5.00 in experiment [4]; 6.30 to 7.30 at PRMT5 [5]; 6.30 to 7.30 at PRMT5 [6]. Moreover, the “MTAP intact/deleted ratio” value in experiment [2] is “A (an IC50 ratio greater than or equal to 10 fold)”.
Regarding `NC(=O)c1cncc(NC(=O)C(=O)N2CCCCC2C2CCC2)c1` (centres unmarked) [Compound 103, 5-[[2-(2-cyclobutyl-1-piperidyl)-2-oxo-acetyl]amino]pyridine-3-carboxamide], the pIC50 is greater than 7.30 at PRMT5 [1]; 6.00 to 7.00 in experiment [2]; less than 6.00 in experiment [3]; less than 5.00 in experiment [4]; 6.30 to 7.30 on PRMT5 [5]; 6.30 to 7.30 on PRMT5 [6]. Also, in experiment [2], the “MTAP intact/deleted ratio” value is reported as “A (an IC50 ratio greater than or equal to 10 fold)”.
Turning to `Cc1cc(NC(=O)C(=O)N2CCCCC2c2cccc3c2CC(=O)N3)cnc1N` (centres unmarked) [Compound 116, N-(6-Amino-5-methyl-3-pyridyl)-2-oxo-2-[2-(2-oxoindolin-4-yl)-1-piperidyl]acetamide], the pIC50 on PRMT5 [1] was 6.30 to 7.30; in experiment [2], 6.00 to 7.00; in experiment [3], less than 6.00; in experiment [4], less than 5.00; at PRMT5 [5], less than 6.30; at PRMT5 [6], 6.30 to 7.30. The “MTAP intact/deleted ratio” value in experiment [2] is reported as “A (an IC50 ratio greater than or equal to 10 fold)”.
As for `NC(=O)c1cncc(NC(=O)C(=O)N2CCCCC2c2ccccc2)c1N` (centres unmarked) [Compound 119, 4-amino-5-[[2-oxo-2-(2-phenyl-1-piperidyl)acetyl]amino]pyridine-3-carboxamide], the pIC50 was 6.30 to 7.30 at PRMT5 [1]; 6.00 to 7.00 in experiment [2]; less than 6.00 in experiment [3]; less than 5.00 in experiment [4]; 6.30 to 7.30 at PRMT5 [5]; 6.30 to 7.30 on PRMT5 [6]. For the same compound, the “MTAP intact/deleted ratio” value in experiment [2] is listed as “A (an IC50 ratio greater than or equal to 10 fold)”.
In the case of `NC(=O)c1cncc(NC(=O)C(=O)N2CCCCC2c2cccs2)c1` (centres unmarked) [Compound 120, 5-[[2-Oxo-2-[2-(2-thienyl)-1-piperidyl]acetyl]amino]pyridine-3-carboxamide], the pIC50 at PRMT5 [1] was greater than 7.30; in experiment [2], 6.00 to 7.00; in experiment [3], less than 6.00; in experiment [4], less than 5.00; at PRMT5 [5], 6.30 to 7.30; at PRMT5 [6], 6.30 to 7.30. Moreover, the “MTAP intact/deleted ratio” value in experiment [2] is “A (an IC50 ratio greater than or equal to 10 fold)”.
With `Cc1cc(NC(=O)C(=O)N2CCCCC2c2csc3ccccc23)cnc1N` (centres unmarked) [Compound 123, N-(6-Amino-5-methyl-3-pyridyl)-2-[2-(benzothiophen-3-yl)-1-piperidyl]-2-oxo-acetamide], the pIC50 is greater than 7.30 at PRMT5 [1]; 6.00 to 7.00 in experiment [2]; less than 6.00 in experiment [3]; 5.00 to 6.00 in experiment [4]; 6.30 to 7.30 at PRMT5 [5]; 6.30 to 7.30 at PRMT5 [6]. Moreover, the “MTAP intact/deleted ratio” value in experiment [2] is “A (an IC50 ratio greater than or equal to 10 fold)”.
With `NC(=O)c1cc(NC(=O)C(=O)N2CCCCC2c2ccccc2)cnc1N` (centres unmarked) [Compound 126, 2-Amino-5-[[2-oxo-2-(2-phenyl-1-piperidyl)acetyl]amino]pyridine-3-carboxamide], the pIC50 was 6.30 to 7.30 at PRMT5 [1]; less than 6.00 in experiment [2]; less than 6.00 in experiment [3]; less than 5.00 in experiment [4]; less than 6.30 at PRMT5 [5]; 6.30 to 7.30 on PRMT5 [6]. Further, in experiment [2], the “MTAP intact/deleted ratio” value is reported as “B (an IC50 ratio greater than or equal to 3 fold but lower than 10 fold)”.
Take `Cc1cc(NC(=O)C(=O)N2CCCCC2c2cccc3scnc23)cnc1N` (centres unmarked) [Compound 129, N-(6-Amino-5-methyl-3-pyridyl)-2-[2-(1,3-benzothiazol-4-yl)-1-piperidyl]-2-oxo-acetamide]: the pIC50 was 6.30 to 7.30 on PRMT5 [1]; less than 6.00 in experiment [2]; less than 6.00 in experiment [3]; less than 5.00 in experiment [4]; less than 6.30 on PRMT5 [5]; 6.30 to 7.30 on PRMT5 [6]. The “MTAP intact/deleted ratio” value in experiment [2] is “B (an IC50 ratio greater than or equal to 3 fold but lower than 10 fold)”.
For the compound `Cc1cc(NC(=O)C(=O)N2CCCCC2c2cccc3c2ncn3C)cnc1N` (centres unmarked) [Compound 132, N-(6-Amino-5-methyl-3-pyridyl)-2-[2-(1-methylbenzimidazol-4-yl)-1-piperidyl]-2-oxo-acetamide], the pIC50 on PRMT5 [1] was 6.30 to 7.30; in experiment [2] it was less than 6.00; in experiment [3], less than 6.00; in experiment [4] it was less than 5.00; on PRMT5 [5], less than 6.30; at PRMT5 [6], less than 6.30. Moreover, the “MTAP intact/deleted ratio” value in experiment [2] is on record as “B (an IC50 ratio greater than or equal to 3 fold but lower than 10 fold)”.
Turning to `O=C(Nc1cncc(CO)c1)C(=O)N1CCCCC1c1ccccc1` (centres unmarked) [Compound 136, N-(5-(hydroxymethyl)pyridin-3-yl)-2-oxo-2-(2-phenylpiperidin-1-yl)acetamide], the pIC50 on PRMT5 [1] is less than 6.30; in experiment [2] it was less than 6.00; in experiment [3], less than 6.00; in experiment [4] it was less than 5.00; at PRMT5 [5] it was less than 6.30; at PRMT5 [6], less than 6.30. Also, the “MTAP intact/deleted ratio” value in experiment [2] was “C (an IC50 ratio of less than 3 fold)”.

These data come from patent US11999727B2 (Tango Therapeutics, Inc., priority 2020, dated 2024).
